Data: patent US20240277693A1, “A PHARMACEUTICAL PRODUCT CONTAINING TASQUINIMOD AND A METHOD FOR ASSESSING THE PURITY OF SAID PRODUCT” (ACTIVE BIOTECH AB, priority 2021, published 2024)

Tests used:
[1] = Drug product stability studies (general observations); format: physicochemical
Text: In a drug product, compound I is formed with compound II from hydrolysis of tasquinimod. […] Compound II is further decarboxylated to form compound III.
Compound III is the decarboxylated species formed from the degradation of compound II.
The mechanism for formation of compound IV in a drug product is unknown.

[2] = Assessment of capsules after manufacture: amount of tasquinimod and of decomposition products; format: physicochemical; details: for amount of compound III in capsules, relative to the amount of tasquinimod / amount of tasquinimod in capsules: after manufacture; for Decomposition products (% w/w), relative to the amount of tasquinimod in capsule / Tasquinimod (mg/capsule): 0 months (after manufacturing)
Text: In some embodiments, the method disclosed herein comprises storing (keeping) a sample of the pharmaceutical product for a period of time, preferably under selected conditions of temperature and humidity. The amount (or concentration) of tasquinimod and of at least one of compounds I, II, III and IV in the sample may preferably be determined at the beginning or before the storage period and at the end of the storage period. The selected storage conditions may include a temperature in the range of, for example, 20° C. to 40° C., and a relative humidity in the surrounding atmosphere in the range of, for example, 30% to 75%; e.g. 25° C. and 60% RH, or 30° C. and 65% RH, or 35° C. and 70% RH, or 40° C. and 75% RH. The storage period may extend over a time period in the range of, for example, several weeks to several years. For example, the stability testing period (“storage period”) may be 2 weeks, 3 weeks, 1 month, 2 months, 3 months, 4 months, 5 months, 6 months, 9 months, 1 year, 18 months, 2 years, 3 years, 4 years or even 5 years or longer. A shorter storage period may be selected by use of higher storage temperature and/or higher relative humidity (RH). The total amount of a tasquinimod decomposition product in the sample at the end of the storage period may be determined by, for example, HPLC.
The obtained batch of capsules was assessed by determining the amount of tasquinimod and the amount of compound III in a sample of the capsules. The selected criterion for approving the batch was that the capsules of the sample contain not more than 1.0% w/w of compound III relative to the amount of tasquinimod. […] Therefore, according to the selected criterion for approval, the batch of capsules was determined to be suitable for distribution.
The obtained batch of capsules was assessed by determining the amount of tasquinimod and the amount of compounds I, II, III and IV in a sample of the capsules. The selected criterion for approving the batch was that the capsules of the sample contain not more than in total 5% w/w of compounds I-IV relative to the amount of tasquinimod. […] Therefore, according to the selected criterion for approval, the batch of capsules was determined to be suitable for distribution.
The obtained batch of capsules was subjected to multiple assessments, viz. a first assessment comprising determining the amount of tasquinimod and the amount of compounds I, II, III and IV in a sample of the capsules directly after manufacturing, whereby the selected criterion for approving the batch for distribution was that the capsules of the sample, in a water impermeable blister pack, contain not more than in total 5% w/w of compounds I-IV relative to the amount of tasquinimod, followed by eight further, independent assessments, by determining the amount of tasquinimod and the amount of each one of compounds I, II, III and IV in a sample of the capsules at the end of a period of stability testing (by keeping the capsules, in a water impermeable blister pack, at 25° C./60% RH) of 3, 6, 9, 12, 18, 24, 36 and 48 months, respectively, whereby each time the criterion for approving the batch was that the capsules of the sample, at the end of each period of stability testing, contain a total amount of compounds I-IV of not more than 5.0% w/w, relative to the amount of tasquinimod in the capsules.

| change of the amount of the compound in tasquinimod drug product on storage [1] | amount of compound III in capsules, relative to the amount of tasquinimod ([2]; 0.25 mg capsules of Example 10) [% w/w] | amount of compound III in capsules, relative to the amount of tasquinimod ([2]; 0.25 mg capsules of Example 13) [% w/w] | amount of compound III in capsules, relative to the amount of tasquinimod ([2]; 0.5 mg capsules of Example 7) [% w/w] | Decomposition products (% w/w), relative to the amount of tasquinimod in capsule ([2]; 0.5 mg capsules of Example 28) [% w/w] | amount of compound III in capsules, relative to the amount of tasquinimod ([2]; 1 mg capsules of Example 2) [% w/w] | amount of compound III in capsules, relative to the amount of tasquinimod ([2]; 1 mg capsules of Example 16) [% w/w] | Decomposition products (% w/w), relative to the amount of tasquinimod in capsule ([2]; 1.0 mg capsules of Example 29) [% w/w] | amount of tasquinimod in capsules ([2]; 0.25 mg capsules of Example 10) [mg/capsule] | amount of tasquinimod in capsules ([2]; 0.25 mg capsules of Example 13) [mg/capsule] | amount of tasquinimod in capsules ([2]; 0.25 mg capsules of Example 19) [mg/capsule] | amount of tasquinimod in capsules ([2]; 0.5 mg capsules of Example 7) [mg/capsule] | Tasquinimod (mg/capsule) ([2]; 0.5 mg capsules of Example 28) | amount of tasquinimod in capsules ([2]; 1 mg capsules of Example 2) [mg/capsule] | amount of tasquinimod in capsules ([2]; 1 mg capsules of Example 16) [mg/capsule] | Tasquinimod (mg/capsule) ([2]; 1.0 mg capsules of Example 29) | Structure (SMILES) |
| --- | --- | --- | --- | --- | --- | --- | --- | --- | --- | --- | --- | --- | --- | --- | --- | --- |
| increase under any conditions | 0.07 | 0.06 | 0.03 | <0.05 | 0.01 | 0.02 | <0.05 | – | – | – | – | – | – | – | – | COc1cccc2c1c(O)cc(=O)n2C [Compound III, 4-hydroxy-5-methoxy-1-methylquinolin-2(1H)-one] |
| – | – | – | – | – | – | – | – | 0.252 | 0.256 | 0.244 | 0.498 | 0.500 | 1.05 | 0.994 | 0.992 | COc1cccc2c1c(O)c(C(=O)N(C)c1ccc(C(F)(F)F)cc1)c(=O)n2C [Tasquinimod, 4-hydroxy-5-methoxy-N, 1-dimethyl-2-oxo-N-[4-(trifluoromethyl)phenyl]-1,2-dihydroquinoline-3-carboxamide] |
